Experimental data from paper PMC10302187, “WssI from the Gram-negative bacterial cellulose synthase is an O-acetyltransferase that acts on cello-oligomers with several acetyl donor substrates” (The Journal of Biological Chemistry, 2023).

Key:
AiWssI^ΔN [1] = target: T1, AiWssI^ΔN (Achromobacter insuavis, UniProt A0A6J5I893); test: HTS MU-Ac fluorescence esterase dose-response assay; format: biochemical; conditions: MU-Ac as esterase substrate
Experimental: Large-scale HTS was conducted at the SPARC BioCentre Drug Discovery (Hospital for Sick Children, Toronto, Canada) with a subset of the Chembridge DIVERset library collection (as well as 135 manually selected compounds based on success against other SGNH enzymes) in a 384-well format. The assay was performed in singlet during the primary screen of the entire compound list and in triplicate for a follow-up confirmatory screen. Reaction setups for both screens were conducted with 50 mM sodium phosphate buffer (pH 6.5), 3 μM AiWssI^ΔN and 0.5 mM MU-Ac (final concentration of 5% [v/v] dimethyl sulfoxide) using a Thermo MultiDrop Combi Reagent Dispenser. The reaction was initiated by the addition of 20 μM of the test compounds using an Echo 550 acoustic dispenser (Labcyte). Fluorescence was monitored with a SynergyNeo microplate reader (BioTek) using excitation and emission wavelengths of 365 and 450 nm, respectively, for approximately 45 min alongside appropriate negative and positive controls. […] The hits remaining after the primary and confirmatory screening were examined further to identify possible PAINS, which could result in false-positive results ([91]). Further refinement of the lead candidates was also conducted by assessing the fluorescence quenching potential of lead compound hits by assaying the quenching potential of different compound concentrations (10.1 μM and/or 50.5 μM) against the fluorescence of 4-methylumbeliferone (247 μM) to reveal any potential false positives that were not actually because of AiWssI^ΔN activity. All fluorescence readings were normalized using the following equation to determine the percentage of quenching ([92]): NormalizedFlouresence=Fobs−μFmin/μFmax−μFminx100% In the aforementioned formula, Fobs is the sample fluorescence value, μFmin is the mean fluorescence value of the negative controls, and μFmax is the mean fluorescence value of the positive controls.
(§1) All inhibitor compounds for confirmatory assays were purchased from Enamine Ltd, with the exception of compound 1 (Santa Cruz Biotechnology, Inc), Compounds 2 and 7 (Molport via Maybridge Ltd and Vitas M Chemical Ltd, respectively) and compound 6 (Mcule, Inc). The dose–response curves were generated using either CDD Vault Analysis Software (Collaborative Drug Discovery, Inc) or GraphPad Prism, version 8.4.3. Inhibition constants (Ki) were calculated using the Cheng–Prusoff equation for competitive inhibition that is calculated using the KM of the uninhibited enzyme, the substrate concentration (S) at which the IC50 values were calculated, and the IC50 value of the inhibitor ([92]): Ki=IC50/(S/KM+1)

AiWssI^ΔN [2] = target: T1, AiWssI^ΔN; test: Follow-up standard MU-Ac esterase assay (dose-response); format: biochemical
Experimental: The fluorescence substrate, MU-Ac, was also tested as a substrate of WssI^ΔN for its amenability to the planned high-throughput analyses (see later). Reaction setups were exactly the same as that for pNP-Ac, with the exceptions of the assay buffer (50 mM sodium phosphate, 150 mM NaCl, 1 mM DTT, pH 7), MU-Ac as the acetyl donor (final concentration of 0.5 mM along with 5% [v/v] dimethyl sulfoxide, as this was the solvent for MU-Ac), and the assay was performed in fluorescence compatible microplates (Grenier BioOne) and monitored with excitation and emission wavelengths of 365 and 450 nm, respectively for 60 min.
as §1

[3] = target: serine/threonine phosphatase calcineurin; design: method as in PMID 9763224; conditions: p-nitrophenyl phosphate as a substrate; cited from earlier work
AiWssI^ΔN [4] = target: T1, AiWssI^ΔN; format: biochemical; conditions: 1 h incubation with reagent (1 mM PMSF, 5 mM MSF, 5 mM EDTA, 0.1 mM E-64, 20 μM Pepstatin A); 6 mM pNP-Ac, pH 7
Experimental: (§2) The enzymatic rate of the WssI^ΔN proteins was measured using chromogenic assays in a 50 mM sodium phosphate-buffered (pH 7) solution, with WssI^ΔN (3 μM unless specified otherwise) and were initiated by the addition of pNP-Ac to a final concentration of 6 mM (dissolved in 5% [v/v] ethanol). Assay samples and corresponding controls (i.e., containing no WssI^ΔN and/or substrate) were run in quadruplicate, and the progress of the reaction was monitored at 405 nm (Cytation5) for 30 min in 1 min intervals following a 5 s initial linear shake to mix contents thoroughly. These conditions were deemed standard assay conditions for subsequent trials except where modifications are noted. The activity assay to determine optimal pH and buffer type was performed with 2-(N-morpholino)ethanesulfonic acid over pH ranges of 5.5 to 6.5, sodium phosphate for pH 6.5 to 7.5, and Tris for the final range of 7.5 to 9.25. In addition, standard assay conditions were modified by incorporating various inhibitors and common reducing agents to determine effects on WssI^ΔN activity. […] To test the effects of the absence of DTT, trials were conducted where DTT was removed from all purification and dialysis buffers, unless mentioned otherwise. Data are either reported in specific activity as units of esterase activity (i.e., the amount of enzyme required to release 1 μmol of p-nitrophenol per min^−1 per mg of protein^−1) or as percent residual activity when compared with the WssI^ΔN controls (i.e., containing no inhibitors).

PfWssI^ΔN = target: T2, PfWssI^ΔN (Pseudomonas fluorescens, UniProt Q8RSY4); format: biochemical; conditions: 1 h incubation with reagent (1 mM PMSF, 5 mM MSF, 5 mM EDTA, 0.1 mM E-64, 20 μM Pepstatin A); 6 mM pNP-Ac, pH 7
T2 sequence (Q8RSY4 92-374): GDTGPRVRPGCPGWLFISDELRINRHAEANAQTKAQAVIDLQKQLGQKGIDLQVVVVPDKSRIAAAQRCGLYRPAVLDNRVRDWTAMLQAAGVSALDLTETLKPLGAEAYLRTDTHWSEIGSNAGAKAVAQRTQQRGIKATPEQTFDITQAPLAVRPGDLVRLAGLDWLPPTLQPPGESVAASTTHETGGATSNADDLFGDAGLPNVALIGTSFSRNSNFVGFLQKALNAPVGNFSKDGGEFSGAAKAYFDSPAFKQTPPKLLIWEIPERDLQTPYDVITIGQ
Experimental: as §2

T1 sequence (A0A6J5I893 entry or part of it, stated change not applied): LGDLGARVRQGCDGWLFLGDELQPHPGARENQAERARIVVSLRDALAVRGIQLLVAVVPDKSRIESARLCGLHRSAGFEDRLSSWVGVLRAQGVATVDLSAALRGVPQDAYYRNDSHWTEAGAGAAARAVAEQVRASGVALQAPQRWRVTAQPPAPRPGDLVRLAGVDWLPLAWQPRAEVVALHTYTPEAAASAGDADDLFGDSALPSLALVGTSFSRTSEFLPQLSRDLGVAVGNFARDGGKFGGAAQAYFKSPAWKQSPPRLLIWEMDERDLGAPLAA

SMILES: N#CC(C#N)=C(N)/C(C#N)=C/c1ccc(O)cc1 [Compound 1, (3Z)-2-Amino-3-[(4-hydroxyphenyl)-methylidene]prop-1-ene-1,1,3-tricarbonitrile]
- IC50 (AiWssI^ΔN [1]): 10.1 µM
- IC50 (AiWssI^ΔN [2]; MU-Ac (0.5 mM) as esterase substrate, read-out: Second MU-Ac IC50): 28.4 µM
- Ki (AiWssI^ΔN [2]; MU-Ac as esterase substrate, Cheng-Prusoff, competitive inhibition, read-out: Second MU-Ac Ki): 15.1 µM
- IC50 [3]: 30 µM

SMILES: CC(C)C[C@H](NC(=O)[C@H]1O[C@@H]1C(=O)O)C(=O)NCCCCN=C(N)N [E-64]
- Residual activity AiWssI^ΔN (AiWssI^ΔN [4]): 130.8 ± 9.1%
- Residual activity PfWssI^ΔN (PfWssI^ΔN): 107.8 ± 10.8%

SMILES: CS(=O)(=O)F [MSF, methanesulfonyl fluoride]
- Residual activity AiWssI^ΔN (AiWssI^ΔN [4]): 95.0 ± 6.2%
- Residual activity PfWssI^ΔN (PfWssI^ΔN): 112.1 ± 4.4%
